Assay results taken from publication PMC8151276, “An Integrated Approach toward NanoBRET Tracers for Analysis of GPCR Ligand Engagement” (Molecules, 2021).

Assays:
Format in all cases: binding
CXCR1 = molecular target: T1, CXCR1 (Homo sapiens, UniProt P25024); experiment: NanoBRET screen HiBiT-CXCR1 in HEK293; settings: CXCR1
T1 construct: purchased Promega (in-house HiBiT-GPCR construct library, NanoBRET)
T1 sequence (P25024 1-350): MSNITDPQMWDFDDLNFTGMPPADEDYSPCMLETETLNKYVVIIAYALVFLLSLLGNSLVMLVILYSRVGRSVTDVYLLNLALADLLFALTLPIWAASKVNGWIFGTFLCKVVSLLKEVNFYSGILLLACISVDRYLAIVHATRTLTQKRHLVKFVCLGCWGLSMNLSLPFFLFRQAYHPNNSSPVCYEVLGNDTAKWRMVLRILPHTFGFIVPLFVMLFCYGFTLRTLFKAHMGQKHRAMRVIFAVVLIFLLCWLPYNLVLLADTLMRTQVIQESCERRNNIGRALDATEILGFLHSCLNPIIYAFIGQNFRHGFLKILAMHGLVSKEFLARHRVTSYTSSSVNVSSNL
Experimental: (§1) Each tracer candidate was screened across the entire library of HiBiT-GPCR constructs using NanoBRET as the detection modality. As depicted in Figure 4A, the specificity of interactions was evaluated through decrease in BRET due to competitive displacement of a bound tracer by excess parental compound. Each tracer was analyzed for binding to each HiBiT-GPCR fusion in the absence and in the presence of competing parental compound. Briefly, HEK293 cells were transfected with HiBiT-GPCR constructs diluted into promoterless DNA to reduce expression and maximize translocation to the cell surface. Each tracer candidate was then screened at concentrations of 1 μM and 0.1 μM across cells expressing these fusions. Cells were treated for 1.5 h with tracer either alone or in the presence of 20 μM competing parental compound (i.e., control). BRET was measured upon addition of purified LgBiT and subsequent complementation with HiBiT genetically fused to a GPCR. The specificity of interactions was assessed through a decrease in BRET signal due to competitive displacement of the bound tracer. To further gauge the robustness of these interactions, the fold response over the control (i.e., BRETtracer/BRETcontrol) was calculated. We chose a 1.5-fold response, which translates to ≥7-fold signal over noise as the minimal threshold required to score an interaction as positive. […]. Below we highlight the screening results obtained for our exemplary fluorescent tracers based on Clozapine, Amitriptyline and AZD1283.
(§2) HiBiT-GPCR DNA constructs were diluted in 10 mM Tris pH 8 to a final concentration of 0.01 μg/μL, arrayed in 96-well plates and stored at −20 °C. For transfection, HEK293 cells were suspended in Opti-MEM (without phenol red) supplemented with 2% fetal bovine serum (Seradigm) and 100 units/mL penicillin–streptomycin (Gibco) at a final concentration of 220,000 cells/mL and dispensed into white 96-well plates at 90 μL/well. Subsequent transfections and screens were carried using an Agilent Bravo Automated Liquid Handling Platform. First, the 96-well HiBiT DNA arrays were diluted 25-fold in Opti-MEM (without serum or phenol red) to a final concentration of 0.0004 μg/μL and 20 μL of the diluted DNAs were transferred into new 96-well plates. Next, promoterless carrier DNA (1 μg/μL) was diluted 25-fold (0.04 μg/μL) and then dispensed into the diluted arrays at 20 μL/well. Following brief mixing, Viafect transfection reagent (Promega) diluted 16-fold into Opti-MEM was dispensed into the plates at 40 μL/well. After mixing by pipetting, plates were incubated for 10 min on the pipetting station deck. The DNA-transfection reagent complexes were then added to plates containing cells. To facilitate the screen, 10 μL of DNA-transfection reagent complexes were added in duplicates to the top 4 and bottom 4 rows, resulting in two identical 48-well arrays per plate. Plates with transfected cells were incubated for 18–20 h at 37 °C/5% CO2. A screen of each tracer across the entire library using two different concentrations requires duplicate plates of transfected cells. Depending on the number of tracers being screened, transfections can be scaled up using the same ratios. The next day, for each tracer, four 20× screening solutions in tracer dilution buffer (Promega) were prepared: two duplicates at final concentration of 20 μM and two duplicates at a final concentration of 2 μM. A competing unmodified compound was added to one of each duplicate at a final concentration of 400 μM. The four resulting solutions were diluted 4-fold in Opti-MEM without serum or phenol red to generate 5× solutions (5 µM and 0.5 µM tracer +/− 100 μM competing compound). To screen the library, a BioTek MultiFlo FX liquid dispenser was used to dispense 22.5 µL of tracer solution to the top 4 rows and 22.5 µL tracer + competing compound solution to the 4 bottom rows. Plates were briefly mixed on an orbital shaker and incubated for 1.5 h at room temperature. […]

HCRTR1 = molecular target: T2, HCRTR1 (Homo sapiens, UniProt O43613); experiment: NanoBRET screen HiBiT-HCRTR1 in HEK293; settings: HCRTR1
T2 construct: purchased Promega (in-house HiBiT-GPCR construct library, NanoBRET)
T2 sequence (O43613 1-425): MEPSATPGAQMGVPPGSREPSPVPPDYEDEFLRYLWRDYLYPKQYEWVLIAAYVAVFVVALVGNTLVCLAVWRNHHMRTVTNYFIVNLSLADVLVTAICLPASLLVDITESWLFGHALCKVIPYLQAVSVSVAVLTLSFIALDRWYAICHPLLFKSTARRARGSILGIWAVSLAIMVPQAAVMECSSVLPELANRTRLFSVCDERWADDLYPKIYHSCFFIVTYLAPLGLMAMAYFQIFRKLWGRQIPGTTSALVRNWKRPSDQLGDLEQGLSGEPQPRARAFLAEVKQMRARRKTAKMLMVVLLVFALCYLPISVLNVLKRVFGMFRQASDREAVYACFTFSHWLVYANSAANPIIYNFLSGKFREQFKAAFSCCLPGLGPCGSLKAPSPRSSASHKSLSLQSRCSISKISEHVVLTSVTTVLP
Experimental: as §1, §2

AVPR2 = molecular target: T3, AVPR2 (Homo sapiens, UniProt P30518); experiment: NanoBRET screen HiBiT-AVPR2 in HEK293; settings: AVPR2
T3 construct: purchased Promega (in-house HiBiT-GPCR construct library, NanoBRET)
Experimental: as §1, §2

DRD5 = molecular target: T4, DRD5 (Homo sapiens, UniProt P21918); experiment: NanoBRET screen HiBiT-DRD5 in HEK293; settings: DRD5
T4 construct: purchased Promega (in-house HiBiT-GPCR construct library, NanoBRET)
Experimental: as §1, §2

PTGER4 = molecular target: T5, PTGER4 (Homo sapiens, UniProt P35408); experiment: NanoBRET screen HiBiT-PTGER4 in HEK293; settings: PTGER4
T5 construct: purchased Promega (in-house HiBiT-GPCR construct library, NanoBRET)
Experimental: as §1, §2

T4 sequence (P21918 whole entry): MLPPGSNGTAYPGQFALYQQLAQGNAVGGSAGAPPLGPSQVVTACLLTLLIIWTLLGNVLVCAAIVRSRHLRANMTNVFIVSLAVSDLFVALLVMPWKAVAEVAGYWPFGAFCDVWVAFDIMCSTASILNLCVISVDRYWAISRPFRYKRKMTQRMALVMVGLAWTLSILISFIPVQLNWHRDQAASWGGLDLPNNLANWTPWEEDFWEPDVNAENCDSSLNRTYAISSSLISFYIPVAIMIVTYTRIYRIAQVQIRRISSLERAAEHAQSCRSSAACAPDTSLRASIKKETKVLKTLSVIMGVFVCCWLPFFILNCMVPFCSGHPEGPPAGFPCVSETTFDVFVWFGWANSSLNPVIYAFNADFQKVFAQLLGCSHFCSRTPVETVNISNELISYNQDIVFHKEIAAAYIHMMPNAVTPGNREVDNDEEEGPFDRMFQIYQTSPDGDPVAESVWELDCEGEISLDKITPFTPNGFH
T3 sequence (P30518 whole entry): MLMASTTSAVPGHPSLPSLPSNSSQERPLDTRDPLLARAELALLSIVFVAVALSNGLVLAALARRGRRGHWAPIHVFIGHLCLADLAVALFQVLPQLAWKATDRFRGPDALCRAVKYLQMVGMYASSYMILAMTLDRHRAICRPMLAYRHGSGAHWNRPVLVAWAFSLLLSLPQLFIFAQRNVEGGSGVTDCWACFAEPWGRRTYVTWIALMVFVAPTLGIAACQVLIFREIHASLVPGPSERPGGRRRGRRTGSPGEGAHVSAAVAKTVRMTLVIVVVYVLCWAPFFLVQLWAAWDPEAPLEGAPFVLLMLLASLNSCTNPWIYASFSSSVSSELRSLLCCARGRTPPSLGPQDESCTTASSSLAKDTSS
T5 sequence (P35408 whole entry): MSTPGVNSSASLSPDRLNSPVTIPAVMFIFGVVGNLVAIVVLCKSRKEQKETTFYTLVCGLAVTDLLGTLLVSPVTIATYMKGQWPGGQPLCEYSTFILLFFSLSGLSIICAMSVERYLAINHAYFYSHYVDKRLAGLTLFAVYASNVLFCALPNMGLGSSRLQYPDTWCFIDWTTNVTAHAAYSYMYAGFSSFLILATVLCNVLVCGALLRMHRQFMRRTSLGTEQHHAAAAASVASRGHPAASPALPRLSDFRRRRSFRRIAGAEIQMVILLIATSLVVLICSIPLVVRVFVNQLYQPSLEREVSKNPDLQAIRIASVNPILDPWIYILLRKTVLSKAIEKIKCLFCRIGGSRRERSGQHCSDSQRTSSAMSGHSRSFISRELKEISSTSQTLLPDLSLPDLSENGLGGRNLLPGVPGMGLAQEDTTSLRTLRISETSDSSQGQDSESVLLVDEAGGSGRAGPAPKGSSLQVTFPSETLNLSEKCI

Row | Compound | NanoBRET Fold Response (CXCR1; 0.1μM) | NanoBRET Fold Response (CXCR1; 1μM) | NanoBRET Fold Response (HCRTR1; 0.1μM) | NanoBRET Fold Response (HCRTR1; 1μM) | NanoBRET Fold Response (AVPR2; 0.1μM) | NanoBRET Fold Response (AVPR2; 1μM) | NanoBRET Fold Response (DRD5; 0.1μM) | NanoBRET Fold Response (DRD5; 1μM) | NanoBRET Fold Response (PTGER4; 0.1μM) | NanoBRET Fold Response (PTGER4; 1μM) | NanoBRET Fold Response (CXCR1; tracer 0.1μM) | NanoBRET Fold Response (CXCR1; tracer 1μM) | NanoBRET Fold Response (HCRTR1; tracer 0.1μM) | NanoBRET Fold Response (HCRTR1; tracer 1μM) | NanoBRET Fold Response (AVPR2; tracer 0.1μM) | NanoBRET Fold Response (AVPR2; tracer 1μM) | NanoBRET Fold Response (DRD5; tracer 0.1μM) | NanoBRET Fold Response (DRD5; tracer 1μM) | NanoBRET Fold Response (PTGER4; tracer 0.1μM) | NanoBRET Fold Response (PTGER4; tracer 1μM)
1 | O=C(CCc1ccc2n1[B-](F)(F)[N+]1=C(c3ccc[nH]3)C=CC1=C2)NCc1ccc(C(=O)NCCOCCOCCNCC(O)COc2cccc3ccccc23)cc1 (centres unmarked) [Propranolol-3-NB590] | 1.02 | 1.00 | 1.01 | 0.94 | 1.00 | 1.00 | 1.03 | 1.00 | 1.04 | 1.06 |  |  |  |  |  |  |  |  |  | 
2 | O=C(CCc1ccc2n1[B-](F)(F)[N+]1=C(c3ccc[nH]3)C=CC1=C2)NCCOCCOCCNC(=O)OCCOCCN1CCN(C2=Nc3ccccc3Sc3ccccc32)CC1 [Quetiapine-a-2-NB590] |  |  |  |  |  |  |  |  |  |  | 0.98 | 0.95 | 0.98 | 0.77 | 1.03 | 0.93 | 1.09 | 1.43 | 1.02 | 1.08
3 | Cc1nc2n(c(=O)c1CCN1CCC(c3noc4cc(F)ccc34)CC1)CCCC2OC(=O)NCCOCCOCCOCCOCCNC(=O)CCc1ccc2n1[B-](F)(F)[N+]1=C(c3ccc[nH]3)C=CC1=C2 (centres unmarked) [Risperidone-2-NB590] |  |  |  |  |  |  |  |  |  |  | 1.01 | 0.91 | 1.01 | 1.05 | 1.04 | 1.01 | 1.92 | 2.44 | 1.00 | 1.04
4 | CC(C)N(CC[C@H](c1ccccc1)c1cc(CCNC(=O)CCOCCOCCOCCOCCNC(=O)CCc2ccc3n2[B-](F)(F)[N+]2=C(c4ccc[nH]4)C=CC2=C3)ccc1O)C(C)C [Tolterodine-2-NB590] |  |  |  |  |  |  |  |  |  |  | 1.27 | 1.06 | 1.04 | 1.16 | 1.06 | 1.06 | 1.01 | 1.04 | 1.00 | 0.99
5 | CC(C)N(CC[C@H](c1ccccc1)c1cc(CCNC(=O)c2ccc(CNC(=O)CCc3ccc4n3[B-](F)(F)[N+]3=C(c5ccc[nH]5)C=CC3=C4)cc2)ccc1O)C(C)C [Tolterodine-BZ-NB590] |  |  |  |  |  |  |  |  |  |  | 0.98 | 1.11 | 0.86 | 1.07 | 0.97 | 1.05 | 1.02 | 1.18 | 1.02 | 1.04
